From US20130217664A1, “NOVEL COMPOUNDS USEFUL FOR THE TREATMENT OF DEGENERATIVE AND INFLAMMATORY DISEASES” (priority 2012, published 2013) come the findings set out here.

Experiment [1] concerns pSTAT1(2)-luciferase reporter in HeLa cells triggered with human OSM. Description: JAK-STAT signalling assay. Type of experiment: cell-based. To be noted: read-out: JAK-STAT IC50. The method in brief:
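HeLa cells transiently co-transfected with pSTAT1(2)-luciferase and LacZ control reporter, preincubated with compound 60 min, then stimulated with human OSM (33 ng/mL final) overnight at 37 °C. Luciferase read by luminescence; percent inhibition from vehicle and no-trigger controls, EC50 from dose-response.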

A further experiment has as its target T1, human JAK3 (Homo sapiens, UniProt P52333).
T1 construct: catalytic domain (amino acids 781-1124; catalog number PV3855); purchased Invitrogen PV3855
Description: JAK3 inhibition assay. Type of experiment: biochemical. The following applies: recombinant human JAK3 catalytic domain; polyGT substrate. The method in brief:
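Radiometric kinase assay: 0.5 ng JAK3 with 2.5 μg polyGT in Tris pH 7.5/MgCl2 buffer, 1 μM ATP plus 0.25 μCi 33P-γ-ATP, 1% DMSO, 45 min at 30 °C, stopped with phosphoric acid.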

Another experiment deals with T2, human JAK1 (Homo sapiens, UniProt P23458).
T2 construct: catalytic domain, amino acids 866-1154; catalog number PV4774; purchased Invitrogen PV4774
Nature of the experiment: JAK1 inhibition assay (polyGT substrate / Ulight-JAK1 peptide). Type of experiment: biochemical. To be noted: recombinant human JAK1 catalytic domain; polyGT or Ulight-JAK1 peptide assay. Summed up:
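Two formats. PolyGT radiometric: 45 min at 30 °C, stopped with phosphoric acid, counted as cpm. Ulight-JAK1 peptide: 60 min at room temperature, stopped with Eu-anti-phosphotyrosine/EDTA, read as RFU. Percent inhibition normalised to vehicle and 10 μM staurosporine.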

The next experiment concerns the target T3, human TYK2 (Homo sapiens, UniProt P29597).
T3 construct: catalytic domain (amino acids 871-1187; catalog number 08-147); purchased Carna Biosciences 08-147
T3 sequence (P29597 871-1187): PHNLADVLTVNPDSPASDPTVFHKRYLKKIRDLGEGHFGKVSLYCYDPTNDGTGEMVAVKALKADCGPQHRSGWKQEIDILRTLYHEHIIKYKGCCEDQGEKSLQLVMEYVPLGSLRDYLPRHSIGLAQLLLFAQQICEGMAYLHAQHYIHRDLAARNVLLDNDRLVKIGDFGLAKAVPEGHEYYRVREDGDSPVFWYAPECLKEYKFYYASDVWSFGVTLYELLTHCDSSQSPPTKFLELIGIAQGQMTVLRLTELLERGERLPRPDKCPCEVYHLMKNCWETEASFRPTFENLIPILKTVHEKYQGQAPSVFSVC
Nature of the experiment: TYK2 inhibition assay. It counts as biochemical. The following applies: recombinant human TYK2 catalytic domain, polyGT substrate. Summed up:
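Radiometric kinase reaction run 90 min at 30 °C, stopped with phosphoric acid, washed and scintillation-counted.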

Setting [2] is: Homo sapiens, HeLa, HeLa cells, pSTAT1(2)-luciferase reporter, human OSM 33 ng/mL.
Where [3] appears, read: HeLa cells, pSTAT1(2)-luciferase reporter, human OSM 33 ng/mL.

Where two headings read alike, the source gives them in different places.

T2 sequence (P23458 866-1154): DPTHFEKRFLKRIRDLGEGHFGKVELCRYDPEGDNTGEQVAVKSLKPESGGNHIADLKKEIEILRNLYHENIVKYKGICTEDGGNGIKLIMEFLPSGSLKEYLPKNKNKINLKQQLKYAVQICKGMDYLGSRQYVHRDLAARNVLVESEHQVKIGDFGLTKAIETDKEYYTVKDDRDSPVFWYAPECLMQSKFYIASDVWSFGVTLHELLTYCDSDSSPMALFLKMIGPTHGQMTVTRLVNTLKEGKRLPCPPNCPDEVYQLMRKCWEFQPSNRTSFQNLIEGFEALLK
T1 sequence (P52333 781-1124): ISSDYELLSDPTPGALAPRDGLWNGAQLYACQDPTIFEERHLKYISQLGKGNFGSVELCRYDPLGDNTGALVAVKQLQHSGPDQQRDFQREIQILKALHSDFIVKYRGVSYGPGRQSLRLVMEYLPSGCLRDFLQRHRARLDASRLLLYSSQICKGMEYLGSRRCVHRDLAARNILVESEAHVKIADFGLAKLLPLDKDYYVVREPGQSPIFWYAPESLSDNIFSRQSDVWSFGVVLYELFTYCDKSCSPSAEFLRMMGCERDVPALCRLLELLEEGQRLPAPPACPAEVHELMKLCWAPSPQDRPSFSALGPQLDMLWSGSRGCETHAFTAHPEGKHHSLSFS

Consider `CCc1cc(C2=CCN(S(=O)(=O)CC(F)(F)F)CC2)ccc1N(C)c1cc2c(cn1)ncn2C` [Compound 232, N-(2-ethyl-4-(1-(2,2,2-trifluoroethylsulfonyl)-1,2,3,6-tetrahydropyridin-4-yl)phenyl)-N,1-dimethyl-1H-imidazo[4,5-c]pyridin-6-amine], for which the 50% inhibitory concentration (IC50) was greater than 1000 nM in experiment [1] (setting [2]), 0.01 to 100 nM at human JAK3, 0.01 to 100 nM at human JAK1 and 0.01 to 100 nM on human TYK2.
In the case of `CCc1cc(C2=CCN(C(=O)Nc3nncs3)CC2)ccc1N(C)c1cc2c(cn1)ncn2C` [Compound 234, 4-(3-Ethyl-4-(methyl(1-methyl-1H-imidazo[4,5-c]pyridin-6-yl)amino)phenyl)-N-(1,3,4-thiadiazol-5-yl)-5,6-dihydropyridine-1(2H)-carboxamide], the IC50 in experiment [1] (Homo sapiens, HeLa) was in the range of 1 to 500 nM; at human JAK3, 0.01 to 100 nM; at human JAK1, 0.01 to 100 nM; on human TYK2 it was 0.01 to 100 nM.
Consider `CCc1cc(C2CCN(C(=O)C(C)O)CC2)ccc1N(C)c1cc2c(cn1)ncn2C` (stereo not shown) [Compound 235, 1-(4-(3-ethyl-4-(methyl(1-methyl-1H-imidazo[4,5-c]pyridin-6-yl)amino)phenyl)piperidin-1-yl)-2-hydroxypropan-1-one], for which the IC50 in experiment [1] (setting [3]) was 501 to 1000 nM; on human JAK3, 101 to 500 nM; at human JAK1 it was 0.01 to 100 nM; at human TYK2 it was 0.01 to 100 nM.
Turning to `CCc1cc(-c2cnn(Cc3cccc(OC)c3)c2)ccc1N(C)c1cc2c(cn1)ncn2C` [Compound 236, N-(2-ethyl-4-(1-(3-methoxybenzyl)-1H-pyrazol-4-yl)phenyl)-N,1-dimethyl-1H-imidazo[4,5-c]pyridin-6-amine], the half-inhibitory concentration (IC50) in experiment [1] (setting [2]) lay in the range of 1 to 500 nM; at human JAK3 it was 0.01 to 100 nM; on human JAK1 it was 0.01 to 100 nM; at human TYK2, 0.01 to 100 nM.
Take `CCc1cc(-c2cnn(Cc3ccc(C)cc3)c2)ccc1N(C)c1cc2c(cn1)ncn2C` [Compound 237, N-(2-ethyl-4-(1-(4-methylbenzyl)-1H-pyrazol-4-yl)phenyl)-N,1-dimethyl-1H-imidazo[4,5-c]pyridin-6-amine]: the concentration for half-maximal inhibition (IC50) in experiment [1] (setting [2]) lay in the range of 1 to 500 nM; on human JAK3, 101 to 500 nM; on human JAK1, 0.01 to 100 nM; on human TYK2, 0.01 to 100 nM.
Regarding `CCc1cc(-c2cnn(Cc3ccc(F)cc3)c2)ccc1N(C)c1cc2c(cn1)ncn2C` [Compound 238, N-(2-ethyl-4-(1-(4-fluorobenzyl)-1H-pyrazol-4-yl)phenyl)-N,1-dimethyl-1H-imidazo[4,5-c]pyridin-6-amine], the IC50 in experiment [1] (setting [2]) fell in the range of 1 to 500 nM; on human JAK3 it was 101 to 500 nM; at human JAK1 it was 0.01 to 100 nM; on human TYK2, 0.01 to 100 nM.
Consider `CCc1cc(-c2cnn(Cc3ccc(Cl)cc3)c2)ccc1N(C)c1cc2c(cn1)ncn2C` [Compound 239, N-(4-(1-(4-chlorobenzyl)-1H-pyrazol-4-yl)-2-ethylphenyl)-N,1-dimethyl-1H-imidazo[4,5-c]pyridin-6-amine], for which the IC50 in experiment [1] (setting [2]) lay within 1 to 500 nM; on human JAK3 it was 101 to 500 nM; on human JAK1 it was 0.01 to 100 nM; on human TYK2, 101 to 500 nM.
`CCCn1cc(-c2ccc(N(C)c3cc4c(cn3)ncn4C)c(CC)c2)cn1` [Compound 240, N-(2-ethyl-4-(1-propyl-1H-pyrazol-4-yl)phenyl)-N,1-dimethyl-1H-imidazo[4,5-c]pyridin-6-amine]: the concentration for half-maximal inhibition (IC50) lay within 501 to 1000 nM in experiment [1] (setting [2]), 501 to 1000 nM on human JAK3, 0.01 to 100 nM at human JAK1 and 0.01 to 100 nM on human TYK2.
Consider `CCc1cc(-c2cnn(CC)c2)ccc1N(C)c1cc2c(cn1)ncn2C` [Compound 241, N-(2-ethyl-4-(1-ethyl-1H-pyrazol-4-yl)phenyl)-N,1-dimethyl-1H-imidazo[4,5-c]pyridin-6-amine], for which the IC50 in experiment [1] (setting [2]) is 1 to 500 nM; at human JAK3 it was 101 to 500 nM; at human JAK1 it was 0.01 to 100 nM; on human TYK2, 101 to 500 nM.
In the case of `CCc1cc(-c2cnn(CC3(C)COC3)c2)ccc1N(C)c1cc2c(cn1)ncn2C` [Compound 242, N-(2-ethyl-4-(1-((3-methyloxetan-3-yl)methyl)-1H-pyrazol-4-yl)phenyl)-N,1-dimethyl-1H-imidazo[4,5-c]pyridin-6-amine], the IC50 is greater than 1000 nM in experiment [1] (setting [3]), 501 to 1000 nM at human JAK3, 0.01 to 100 nM on human JAK1 and 101 to 500 nM at human TYK2.
On to `CCc1cc(C2=CCN(S(=O)(=O)C(C)C)CC2)ccc1N(C)c1cc2c(cn1)ncn2C` [Compound 246, N-(2-ethyl-4-(1-(isopropylsulfonyl)-1,2,3,6-tetrahydropyridin-4-yl)phenyl)-N,1-dimethyl-1H-imidazo[4,5-c]pyridin-6-amine], for which the IC50 fell in the range of 1 to 500 nM in experiment [1] (setting [2]), 0.01 to 100 nM on human JAK3, 0.01 to 100 nM at human JAK1 and 0.01 to 100 nM at human TYK2.
`CCc1cc(C2=CCN(S(=O)(=O)CC#N)CC2)ccc1N(C)c1cc2c(cn1)ncn2C` [Compound 247, 2-(4-(3-ethyl-4-(methyl(1-methyl-1H-imidazo[4,5-c]pyridin-6-yl)amino)phenyl)-5,6-dihydropyridin-1(2H)-ylsulfonyl)acetonitrile]: the IC50 in experiment [1] (setting [2]) lay in the range of 1 to 500 nM; on human JAK3 it was 0.01 to 100 nM; at human JAK1, 0.01 to 100 nM; on human TYK2, 0.01 to 100 nM.
For `CCc1cc(C2=CCN(C(=O)C(C)NC(=O)OC(C)(C)C)CC2)ccc1N(C)c1cc2c(cn1)ncn2C` (stereo not shown) [Compound 249, tert-butyl 1-(4-(3-ethyl-4-(methyl(1-methyl-1H-imidazo[4,5-c]pyridin-6-yl)amino)phenyl)-5,6-dihydropyridin-1(2H)-yl)-1-oxopropan-2-ylcarbamate], the IC50 in experiment [1] (setting [2]) is 1 to 500 nM; at human JAK3 it was 0.01 to 100 nM; on human JAK1 it was 0.01 to 100 nM; on human TYK2 it was 0.01 to 100 nM.
Consider `CCc1cc(C2=CCN(C(=O)C(C)OC)CC2)ccc1N(C)c1cc2c(cn1)ncn2C` (stereo not shown) [Compound 250, 1-(4-(3-ethyl-4-(methyl(1-methyl-1H-imidazo[4,5-c]pyridin-6-yl)amino)phenyl)-5,6-dihydropyridin-1(2H)-yl)-2-methoxypropan-1-one], for which the IC50 in experiment [1] (setting [2]) lay in the range of 1 to 500 nM; on human JAK3, 501 to 1000 nM; at human JAK1 it was 0.01 to 100 nM; on human TYK2 it was 0.01 to 100 nM.
With `CCc1cc(C2=CCN(C(=O)[C@H](C)O)CC2)ccc1N(C)c1cc2c(cn1)ncn2C` [Compound 251, (S)-1-(4-(3-ethyl-4-(methyl(1-methyl-1H-imidazo[4,5-c]pyridin-6-yl)amino)phenyl)-5,6-dihydropyridin-1(2H)-yl)-2-hydroxypropan-1-one], the IC50 in experiment [1] (setting [2]) was 1 to 500 nM; at human JAK3 it was 101 to 500 nM; on human JAK1 it was 0.01 to 100 nM; at human TYK2, 0.01 to 100 nM.
Turning to `CCc1cc(CNC(=O)CC#N)ccc1N(C)c1cc2c(cn1)ncn2C` [Compound 255, 2-cyano-N-(3-ethyl-4-(methyl(1-methyl-1H-imidazo[4,5-c]pyridin-6-yl)amino)benzyl)acetamide], the IC50 in experiment [1] (setting [2]) was greater than 1000 nM; at human JAK3 it was 101 to 500 nM; at human JAK1, 0.01 to 100 nM; at human TYK2, 101 to 500 nM.
For the molecule `CCc1cc(C2=CCN(C(=O)Nc3ncns3)CC2)ccc1N(C)c1cc2c(cn1)ncn2C` [Compound 257, 4-(3-Ethyl-4-(methyl(1-methyl-1H-imidazo[4,5-c]pyridin-6-yl)amino)phenyl)-N-(1,2,4-thiadiazol-5-yl)-5,6-dihydropyridine-1(2H)-carboxamide], the half-maximal inhibitory concentration (IC50) in experiment [1] (setting [2]) was 1 to 500 nM; at human JAK3, 0.01 to 100 nM; on human JAK1, 0.01 to 100 nM; at human TYK2, 0.01 to 100 nM.
On to `CCc1cc(CNC(=O)NC#N)ccc1N(C)c1cc2c(cn1)ncn2C` [Compound 258, 1-{3-Ethyl-4-[methyl-(1-methyl-1H-imidazo[4,5-c]pyridin-6-yl)-amino]-benzyl}-3-cyano-urea], for which the IC50 is greater than 1000 nM in experiment [1] (Homo sapiens, HeLa); 101 to 500 nM on human JAK3; 0.01 to 100 nM at human JAK1; 101 to 500 nM at human TYK2.
As to `CCc1cc(O[C@@H]2CCN(S(C)(=O)=O)C2)ccc1N(C)c1cc2c(cn1)ncn2C` [Compound 259, (R)-N-(2-ethyl-4-(1-(methylsulfonyl)pyrrolidin-3-yloxy)phenyl)-N,1-dimethyl-1H-imidazo[4,5-c]pyridin-6-amine], the IC50 in experiment [1] (setting [2]) lay within 501 to 1000 nM; on human JAK3, 501 to 1000 nM; on human JAK1, 0.01 to 100 nM; at human TYK2, 101 to 500 nM.

Broadly, the IC50 is the concentration that gives 50% inhibition.
